Values of other authors, collected in patent publication US11878005B2, “Formulations of deferasirox and methods of making the same” (AustinPx, LLC, priority 2015, dated 2024).

Key:
[1] = not given; remark: listed apart in the source

Question: For O=C(O)c1ccc(-n2nc(-c3ccccc3O)nc2-c2ccccc2O)cc1 [DFX, Deferasirox], which reported water solubility (25° C.) is on record?
Answer: Its reported water solubility is 400 µg/mL.

Question: And the pH dependent solubility (acidic media)?
Answer: Its pH dependent solubility is “insoluble in acidic media”.

Question: What about the “food effect on exposure” value ([1]; iron overload patients, administered with a high fat meal) of the same molecule?
Answer: Its value is “two-fold higher exposure”.

Question: What about the “total DFX dose recovered in the feces as unchanged drug” value ([1]; steady state (7-day dosing)) of the same molecule?
Answer: Its value is 84%.
